From patent US7820625B2, “UV-induced dermatitis inhibitor and atopic dermatitis inhibitor” (National Institute of Advanced Industrial Science and …, priority 2005, dated 2010)
Where a SMILES comes first, the peptide text is derived from it. Where no end group is shown, it is not given here.

Tests used:
[1] = system: BALB/c mice (DNFB-induced dermatitis, auricle skin); test: DNFB-induced dermatitis in mouse earlobes; amount of water evaporation (Tewameter TM300) to evaluate the barrier function of keratin; format: in vivo
Description: A 1 mg portion of glycylprolylisoleucylglycylserine (SEQ ID NO: 6) (hereinafter, also referred to as “GPIGS”) (manufactured by AMERICAN PEPTIDE COMPANY, Inc., lot. CC-09-119) was weighed. This GPIGS [SEQ ID NO: 6] was dissolved by the addition of 300 μl of Otsuka distilled water for injection (manufactured by Otsuka Pharmaceutical Co., Ltd., cat. 322134). Then, this solution was mixed with 200 μl of propylene glycol (manufactured by Wako Pure Chemical Industries, Ltd., cat. 161-05006) and 500 μl of ethanol (manufactured by Wako Pure Chemical Industries, Ltd., cat. 057-00456) to prepare 1 mg/ml GPIGS [SEQ ID NO: 6] solution (1).
Seven-week-old mice (produced by Japan SLC. Inc, BALB/c line) were raised for 1 week and acclimatized.
A 10 μl portion (14.5 mg) of […] (manufactured by NACALAI TESQUE, INC., cat. 135-12) (DNFB) was added to 9.7 ml of (acetone:olive oil=3:1) solution to prepare 1.5 mg/ml DNFB solution.
A 25 μl portion of 1.5 mg/ml DNFB solution was applied five times (once a week) to each of the front and back sides of the left and right earlobes of the BALB/c mice (8-week-old).
From one day after the 4th DNFB solution application, 25 μl of the drug solution was applied once a day to each of the front and back sides of the left and right earlobes (in the 5th DNFB solution application, the GPIGS [SEQ ID NO: 6] solution (1) was applied 1 hour before DNFB application). Forty-eight hours after the 5th DNFB solution application, an amount of water evaporation in the auricle surfaces was measured with Tewameter TM300 (manufactured by Courage+Khazaka electronic GmbH.) to evaluate the barrier function of keratin (1-3) (the present invention).
The barrier function of keratin was also evaluated on (1-1) wherein the same procedures aforementioned were performed except that a (acetone:olive oil=3:1) solution was applied instead of the DNFB solution and (1-2) (Comparative Example) wherein the same procedures aforementioned were performed except that a solution containing the GPIGS [SEQ ID NO: 6] solution (1) except for GPIGS [SEQ ID NO: 6] was used.
All the experiments were conducted using five mice.
The data in FIG. 1 are indicated with mean±standard deviation (mean±S.E.). Statistical analysis was conducted by Student's t-test (Stat View J-4.02, Abacus Concepts Inc.). A significant level less than 5% (p<0.05) means that a significant difference is present.

[2] = system: Hos:HR-1 mice (UVB-irradiated back skin); test: UVB-irradiated mouse back skin; amount of water evaporation (Tewameter TM300) to evaluate the barrier function of keratin; format: in vivo; settings: for rate of increase in the total amount of water evaporation from the 1st day to the 10th day after UVB irradiation: 1 mg/ml ointment, increase of Comparative Example (5-2) over non-irradiated (5-1) defined as 100%
Description: A GPIGS [SEQ ID NO: 6] solution (1) was prepared in the same way as in Example 1.
Mice used were 10-week-old mice (produced by Japan SLC. Inc, Hos:HR-1 line) raised for 1 week or longer in the breeding room of National Institute of Advanced Industrial Science and Technology and acclimatized.
The backs of the mice fixed under pentobarbital anesthesia were irradiated with 150 mJ/cm^2 UVB for 5 days (once a day) to cause skin damage. A 100 μl portion of the drug solution was applied once a day immediately after UVB irradiation to each of the skin surfaces of the backs. An amount of water evaporation in the skin surfaces of the backs was measured with Tewameter TM300 (manufactured by Courage+Khazaka electronic GmbH.) to evaluate the barrier function of keratin.
All the experiments were conducted using four mice.
The data in FIG. 2 are indicated with mean±standard deviation (mean±S.E.). Statistical analysis was conducted by Student's t-test (Stat View J-4.02, Abacus Concepts Inc.). A significant level less than 5% (p<0.05) means that a significant difference is present. In this context, the open triangle denotes (2-1) without UVB irradiation; x denotes (2-2) (Comparative Example) using a solution containing the GPIGS [SEQ ID NO: 6] solution (1) except for GPIGS [SEQ ID NO: 6]; and the solid diamond denotes Example of the present application (2-3).

[3] = 1 mg/ml solution (water/propylene glycol/ethanol), 25 μl once a day on earlobes, 48 h after 5th DNFB application, vehicle control 13.11 (GPIGS experiment), 9.29 (IGS experiment)

Molecule | amount of water evaporation [1, 3] | rate of increase in the total amount of water evaporation from the 1st day to the 10th day after UVB irradiation [2] | amount of water evaporation ([1]; 1 mg/ml ointment (3-3), base ointment control 8.42, no DNFB 1.83) | amount of water evaporation ([1]; 3 mg/ml ointment (3-4), base ointment control 8.42, no DNFB 1.83) | barrier function of keratin compared with Example 1 ([1]; 3 mg/ml solution, otherwise as Example 1) | dermatitis of each mouse ([1]; ointment (10 mg GPIGS with Hiviswako 104, propylene glycol, diisopropanolamine, gentamycin, water), mice treated as in Examples 1 and 2) | amount of water evaporation compared with Comparative Example (2-2) ([2]; 1 mg/ml solution, 100 μl once a day after 150 mJ/cm^2 UVB, following the fourth day after UVB irradiation)
CC[C@H](C)[C@H](N)C(=O)NCC(=O)N[C@@H](CO)C(=O)O [IGS, isoleucylglycylserine] (H-Ile-Gly-Ser-OH) | 5.57 g/m^2/hr | 55.4% | – | – | – | – | –
GPIGS [GPIGS, glycylprolylisoleucylglycylserine] | 11.30 g/m^2/hr | 82.1% | 5.23 g/m^2/hr | 3.89 g/m^2/hr | more excellent barrier function of keratin | improvement | significantly lower
